In patent publication US20240002430A1, “METHOD FOR PRODUCING PROTEIN COMPOSITIONS” (HOFFMAN-LA ROCHE INC., priority 2020, published 2024):

How the values were obtained:
[1] = general statement in the description, no test described; cited from earlier work
lipase CalB2 = target: T1, lipase CalB2 (Moesziomyces antarcticus, UniProt P41365); test: Targeted LC-MS proteomics of lipase bound to bis-enol-ester functionalized magnetic beads; assay type: binding; details: compound C coupled to azide modified polystyrene magnetic beads; CalB2 + Herceptin mixture, over night 40° C.; after extensive washing; vs non-functionalized beads
T1 sequence (P41365 26-342): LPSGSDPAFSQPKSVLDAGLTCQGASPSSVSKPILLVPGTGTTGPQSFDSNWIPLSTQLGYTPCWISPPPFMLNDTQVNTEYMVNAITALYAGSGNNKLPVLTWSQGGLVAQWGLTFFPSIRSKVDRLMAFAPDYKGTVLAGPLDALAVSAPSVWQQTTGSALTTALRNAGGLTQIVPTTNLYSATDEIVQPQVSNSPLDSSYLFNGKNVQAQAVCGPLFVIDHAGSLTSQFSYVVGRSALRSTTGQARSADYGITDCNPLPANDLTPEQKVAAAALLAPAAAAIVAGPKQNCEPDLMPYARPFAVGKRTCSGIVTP
Method: Test sample: Herceptin (mAb; 0.2 μg/μl in Na-Phosphate-Buffer) as control protein for the LC-MS based proteomics workflow was mixed with the lipase CalB2 (CalB2; […] in Na-Phosphate-Buffer) in a ca. 1:1 (mol/mol) ratio) as target. The above-mentioned samples were addressed with compound C (bis-enol-ester) covalently coupled to 60 μg azide modified magnetic particles (60 μl of a […] aqueous solution were prepared) (Polystyrene based azide beads; CLK-1036-1, Jena-Bioscience) which were made by click reaction and purification (see protocol experiment Example 1 and general procedure described for the Jena-Bioscience click protocol). […]
The targeted LC-MS analysis was performed using Water/Acetonitrile gradients with TFA (0.05% v(v) as buffer. The separation column was a PepSwift Monolithic Capillary Column, 200 μm×5 cm, P/N: 161409. As mass spectrometer, a Thermo LTQ FT system was used. Further experimental design for quantitative analyses followed general experimental targeted LC-MS procedures. The proteins bound to the beads were applied to the LC-MS system by injection of 1 μl of the digested sample on the analytical column. […]

Structure (SMILES) | solubility in water [1] | binding of model lipase CalB2 to functionalized beads (LC-MS peptide peak intensities, FIG. 6) (lipase CalB2)
CCCCCCCCCCC[C@@H](C[C@@H]1OC(=O)[C@H]1CCCCCC)OC(=O)[C@H](CC(C)C)NC=O [Orlistat] | highly insoluble in water | 
C#CCCCC(=C/OC(=O)CCCCCCCCCCC)/C=C/OC(=O)CCCCCCCCCCC [bis-enol ester] |  | binds to beads functionalized with bis-enol ester even when subjected to extensive washing steps
